Laboratory results published in patent US9174982B2, “Apoptosis-inducing agents for the treatment of cancer and immune and autoimmune diseases” (AbbVie Inc., priority 2009, dated 2015).

Columns and labels:
[1] = biological target: GST-Bcl-2 (Homo sapiens (Human), UniProt P10415); assay: Time Resolved-Fluorescence Resonance Energy Transfer (TR-FRET) Bcl-2 binding assay; conditions: GST-Bcl-2 1 nM, F-Bak peptide probe 100 nM, Tb-anti-GST 1 nM; 3 hours at room temperature; < means below limit of detection
Chain of GST-Bcl-2 (P10415 whole entry): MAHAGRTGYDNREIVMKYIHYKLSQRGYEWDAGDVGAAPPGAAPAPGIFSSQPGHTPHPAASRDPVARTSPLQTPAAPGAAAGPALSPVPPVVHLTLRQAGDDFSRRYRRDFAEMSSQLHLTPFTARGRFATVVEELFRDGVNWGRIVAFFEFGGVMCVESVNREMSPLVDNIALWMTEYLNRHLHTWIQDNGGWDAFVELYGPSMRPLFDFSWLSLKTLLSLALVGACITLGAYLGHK
Description: Determination of the utility of compounds having Formula (I) as binders to and inhibitors of anti-apoptotic Bcl-2 proteins was performed using the Time Resolved-Fluorescence Resonance Energy Transfer (TR-FRET) Assay.
Representative compounds were serially diluted in dimethyl sulfoxide (DMSO) starting at 50 μM (2× starting concentration; 10% DMSO) and 10 μL were transferred into a 384-well plate. The samples are then mixed on a shaker for 1 minute and incubated for an additional 3 hours at room temperature. For each assay, the probe/antibody and protein/probe/antibody were included on each assay plate as negative and positive controls, respectively.
The samples were then mixed on a shaker for 1 minute and incubated for an additional 3 hours at room temperature. For each assay, the probe/antibody and protein/probe/antibody were included on each assay plate as negative and positive controls, respectively.

[2] = stability of coupling product during workup and chromatography, monitored by HPLC/MS; assay type: physicochemical; conditions: peak disappeared during workup and chromatography
Description: Specifically, this was discovered by the inventors in the following compound preparation. The intermediate structure F, that directly precedes the final product of the unstable compound, was prepared according to the route below. All intermediates A-F were stable and isolable using techniques known to those skilled in the art.
Intermediate F, shown in the scheme above, was reacted with intermediate G using standard coupling conditions that are known to those skilled in the art. The reaction mixture was analyzed via HPLC/MS to monitor the formation of a peak corresponding to the compound H. While this peak formed within hours of initiating the reaction below, the peak progressively disappeared during workup and chromatography, until it no longer was present. The lack of stability of the putative compound originates from the position of the nitrogen within the fused ring-system described above. This position, which is adjacent to the oxygen-bearing carbon in the 5-substituted-1H-pyrrolo[2,3-c]pyridine ring system shown below and described above, makes the compound H unstable.

[3] = tested on: RS4;11 cells; assay: RS4;11 cell viability assay; assay type: cell-based; conditions: 10% human serum, 48 hours, CellTiter Glo
Description: Cell cytotoxicity EC50 values were assessed using CellTiter Glo (Promega) according to the manufacturer's recommendations. The EC50 values were determined as a percentage of viable cells following treatment compared to the untreated control cells.

[4] = tested on: RS4;11 cells; conditions: Blood, 2008, Vol. 111, 2300-2309; cited from earlier work

Molecule	Ki [1] [nM]	stability [2]	EC50 [3] [nM]	sensitivity of RS4; 11 cells to the inhibitor [4]
CC1(C)CCC(CN2CCN(c3ccc(C(=O)NS(=O)(=O)c4cnc(NC[C@H]5CC[C@@](C)(O)CC5)c([N+](=O)[O-])c4)c(Oc4cnc5[nH]ccc5c4)c3)CC2)=C(c2ccc(Cl)cc2)C1 [Example 371, 4-(4-{[2-(4-chlorophenyl)-4,4-dimethylcyclohex-1-en-1-yl]methyl}piperazin-1-yl)-N-[(6-{[(trans-4-hydroxy-4-methylcyclohexyl)methyl]amino}-5-nitropyridin-3-yl)sulfonyl]-2-(1H-pyrrolo[2,3-b]pyridin-5-yloxy)benzamide]	< 0.001			
CC1(C)CCC(CN2CCN(c3ccc(C(=O)NS(=O)(=O)c4ccc(NCC5CCOCC5)c([N+](=O)[O-])c4)c(Oc4cc5cc[nH]c5cn4)c3)CC2)=C(c2ccc(Cl)cc2)C1 [compound H]		unstable		
4-(4-{[2-(4-chlorophenyl)-4,4-dimethylcyclohex-1-en-1-yl]methyl}piperazin-1-yl)-N-{[4-({[(E)-4-hydroxy-1-adamantyl]methyl}amino)-3-nitrophenyl]sulfonyl}-2-(1H-pyrrolo[2,3-b]pyridin-5-yloxy)benzamide [Example 199]	< 0.01		5.06	
4-(4-{[2-(4-chlorophenyl)-4,4-dimethylcyclohex-1-en-1-yl]methyl}piperazin-1-yl)-N-{[4-({[cis-3-morpholin-4-ylcyclopentyl]methyl}amino)-3-nitrophenyl]sulfonyl}-2-(1H-pyrrolo[2,3-b]pyridin-5-yloxy)benzamide [Example 188]			16.4	
CC1(C)CCC(CN2CCN(c3ccc(C(=O)NS(=O)(=O)c4ccc(NC[C@H]5CC[C@@](C)(O)CC5)c([N+](=O)[O-])c4)c(Oc4cnc5[nH]ccc5c4)c3)CC2)=C(c2ccc(Cl)cc2)C1 [Example 337, 4-(4-{[2-(4-chlorophenyl)-4,4-dimethylcyclohex-1-en-1-yl]methyl}piperazin-1-yl)-N-[(4-{[(trans-4-hydroxy-4-methylcyclohexyl)methyl]amino}-3-nitrophenyl)sulfonyl]-2-(1H-pyrrolo[2,3-b]pyridin-5-yloxy)benzamide]			1.76	
4-(4-{[2-(4-chlorophenyl)-4,4-dimethylcyclohex-1-en-1-yl]methyl}piperazin-1-yl)-N-({3-(pentafluoro-lambda-6-sulfanyl)-4-[(tetrahydro-2H-pyran-4-ylmethyl)amino]phenyl}sulfonyl)-2-(1H-pyrrolo[2,3-b]pyridin-5-yloxy)benzamide [Example 233]	1.65		> 1000	
CC1(C)CCC(CN2CCN(c3ccc(C(=O)NS(=O)(=O)c4cnc(OC[C@]5(F)CC[C@@H](O)CC5)c(Cl)c4)c(Oc4cnc5[nH]ccc5c4)c3)CC2)=C(c2ccc(Cl)cc2)C1 [Example 350, N-({5-chloro-6-[(cis-1-fluoro-4-hydroxycyclohexyl)methoxy]pyridin-3-yl}sulfonyl)-4-(4-{[2-(4-chlorophenyl)-4,4-dimethylcyclohex-1-en-1-yl]methyl}piperazin-1-yl)-2-(1H-pyrrolo[2,3-b]pyridin-5-yloxy)benzamide]	< 0.01			
CC1(C)CCC(CN2CCN(c3ccc(C(=O)NS(=O)(=O)c4ccc(OCC5COCCN5C5CCOCC5)c([N+](=O)[O-])c4)c(Oc4cnc5[nH]ccc5c4)c3)CC2)=C(c2ccc(Cl)cc2)C1 (stereo not drawn) [Example 104, 4-(4-{[2-(4-chlorophenyl)-4,4-dimethylcyclohex-1-en-1-yl]methyl}piperazin-1-yl)-N({3-nitro-4-[(4-tetrahydro-2H-pyran-4-ylmorpholin-3-yl)methoxy]phenyl}sulfonyl)-2-(1H-pyrrolo[2,3-b]pyridin-5-yloxy)benzamide]	0.016		71.2	
4-(4-{[2-(4-chlorophenyl)-4,4-dimethylcyclohex-1-en-1-yl]methyl}piperazin-1-yl)-N-{[4-({[(Z)-4-hydroxy-1-adamantyl]methyl}amino)-3-nitrophenyl]sulfonyl}-2-(1H-pyrrolo[2,3-b]pyridin-5-yloxy)benzamide [Example 200]	< 0.01		11	
CN(C)CC[C@H](CSc1ccccc1)Nc1ccc(S(=O)(=O)NC(=O)c2ccc(N3CCN(Cc4ccccc4-c4ccc(Cl)cc4)CC3)cc2)cc1[N+](=O)[O-] [ABT-737, N-(4-(4-((4′-chloro(1,1′-biphenyl)-2-yl)methyl)piperazin-1-yl)benzoyl)-4-(((1R)-3-(dimethylamino)-1-((phenylsulfanyl)methyl)propyl)amino)-3-nitrobenzenesulfonamide]				sensitive
CCC1(O)CCC(CNc2ccc(S(=O)(=O)NC(=O)c3ccc(N4CCN(CC5=C(c6ccc(Cl)cc6)CC(C)(C)CC5)CC4)cc3Oc3cnc4[nH]ccc4c3)cc2[N+](=O)[O-])CC1 (stereo not drawn) [Example 358, 4-(4-{[2-(4-chlorophenyl)-4,4-dimethylcyclohex-1-en-1-yl]methyl}piperazin-1-yl)-N-[(4-{[(trans-4-ethyl-4-hydroxycyclohexyl)methyl]amino}-3-nitrophenyl)sulfonyl]-2-(1H-pyrrolo[2,3-b]pyridin-5-yloxy)benzamide]	< 0.01			
CC1(C)CCC(CN2CCN(c3ccc(C(=O)NS(=O)(=O)c4cnc(NC[C@H]5CC[C@](C)(O)CC5)c([N+](=O)[O-])c4)c(Oc4cnc5[nH]ccc5c4)c3)CC2)=C(c2ccc(Cl)cc2)C1 [Example 376, 4-(4-{[2-(4-chlorophenyl)-4,4-dimethylcyclohex-1-en-1-yl]methyl}piperazin-1-yl)-N-[(6-{[(cis-4-hydroxy-4-methylcyclohexyl)methyl]amino}-5-nitropyridin-3-yl)sulfonyl]-2-(1H-pyrrolo[2,3-b]pyridin-5-yloxy)benzamide]	< 0.001			
C[C@]1(O)CC[C@@H](COc2ncc(S(=O)(=O)NC(=O)c3ccc(N4CCN(CC5=C(c6ccc(Cl)cc6)CC6(CC5)CC6)CC4)cc3Oc3cnc4[nH]ccc4c3)cc2Cl)CC1 [Example 341, N-({5-chloro-6-[(trans-4-hydroxy-4-methylcyclohexyl)methoxy]pyridin-3-yl}sulfonyl)-4-(4-{[5-(4-chlorophenyl)spiro[2.5]oct-5-en-6-yl]methyl}piperazin-1-yl)-2-(1H-pyrrolo[2,3-b]pyridin-5-yloxy)benzamide]	< 0.01		31.7	
COC1(C)CCC(c2ccc(Cl)cc2)=C(CN2CCN(c3ccc(C(=O)NS(=O)(=O)c4ccc(NC[C@H]5CC[C@@](C)(O)CC5)c([N+](=O)[O-])c4)c(Oc4cnc5[nH]ccc5c4)c3)CC2)C1 (stereo partly drawn) [Example 377, 4-(4-{[2-(4-chlorophenyl)-5-methoxy-5-methylcyclohex-1-en-1-yl]methyl}piperazin-1-yl)-N-[(4-{[(trans-4-hydroxy-4-methylcyclohexyl)methyl]amino}-3-nitrophenyl)sulfonyl]-2-(1H-pyrrolo[2,3-b]pyridin-5-yloxy)benzamide]	< 0.001			
4-(4-{[2-(4-chlorophenyl)-4,4-dimethylcyclohex-1-en-1-yl]methyl}piperazin-1-yl)-N-[(4-{[(3R)-1-(2-fluoroethyl)pyrrolidin-3-yl]amino}-3-nitrophenyl)sulfonyl]-2-(1H-pyrrolo[2,b]pyridin-5-yloxy)benzamide [Example 183]	< 0.01		17.5	
CC[C@]1(O)CC[C@H](CNc2ccc(S(=O)(=O)NC(=O)c3ccc(N4CCN(CC5=C(c6ccc(Cl)cc6)CC(C)(C)CC5)CC4)cc3Oc3cnc4[nH]ccc4c3)cc2[N+](=O)[O-])CC1 [Example 359, 4-(4-{[2-(4-chlorophenyl)-4,4-dimethylcyclohex-1-en-1-yl]methyl}piperazin-1-yl)-N-[(4-{[(cis-4-ethyl-4-hydroxycyclohexyl)methyl]amino}-3-nitrophenyl)sulfonyl]-2-(1H-pyrrolo[2,3-b]pyridin-5-yloxy)benzamide]	< 0.01			
CC1(C)CCC(CN2CCN(c3ccc(C(=O)NS(=O)(=O)c4ccc(OC[C@H]5CC[C@@](C)(O)CC5)c(Cl)c4)c(Oc4cnc5[nH]ccc5c4)c3)CC2)=C(c2ccc(Cl)cc2)C1 [Example 362, N-({3-chloro-4-[(trans-4-hydroxy-4-methylcyclohexyl)methoxy]phenyl}sulfonyl)-4-(4-{[2-(4-chlorophenyl)-4,4-dimethylcyclohex-1-en-1-yl]methyl}piperazin-1-yl)-2-(1H-pyrrolo[2,3-b]pyridin-5-yloxy)benzamide]	0.016		31.7	
